Test system: 855422-203-R-J1-PDC complex spheroid viability
Test: Anticancer human tumor 855422-203-R-J1-PDC patient-derived bladder carcinoma cell line growth inhibition
Conditions: for IC50: curve of first compound; for viability, T/C: stronger effect = lower value
From the text: Multicellular complex tumor spheroid response to LSD1 Inhibitor Iadademstat in combination with a variety of drugs and investigational agents in selected tumor cell lines
The current study was undertaken to assess response to LSD1 inhibitors in combination with standard-of-care drugs and investigational agents in solid tumor complex spheroid models as well as in the K-562 leukemia. Complex spheroids include a stromal component modeled by human endothelial cells (HUVEC) and fibroblasts modeled by human mesenchymal stem cells (MSCs). The concentration ranges selected for each drug and investigational agent were based upon clinically achievable concentrations if the clinical Cmax of the agent was known.
Compounds. The drugs and investigational agents used in this study are listed on Table 1. All of the agents used, including staurosporine (NSC755774) and gemcitabine (NSC613327), were obtained from the Developmental Therapeutics Program, NCI. FDA-approved anticancer drugs are available from the NCI at http://dtp.nci.nih.gov/branches/dscb/oncology_drugset_explanation.html. Drugs and investigational agents were >95% pure by proton nuclear magnetic resonance (NMR) and liquid chromatography/mass spectrometry (LC/MS). Stock solutions were prepared at 400x in DMSO, stored at -70 degrees C, and diluted in fresh medium prior to their use. The final concentration of DMSO in cell culture wells never exceeded 0.25% (v/v). The FDA-approved anticancer drug set is available from the Developmental Therapeutics Program at https://dtp.cancer.gov/organization/dscb/obtaining/available_plates.htm. All drugs and investigational agents were tested over a range starting from a high concentration at or near the clinical Cmax and decreasing in half-log increments. If the clinical Cmax for an agent had not been determined, the highest concentration tested was 10 microM.
Cell Lines. The patient-derived cancer cell (PDC) lines: 292921-168-R-J2-PDC, K24384-001-R-PDC, and 521955-158-R2-J5-PDC pancreatic carcinomas, 556581-035-R-J1 ovarian carcinoma, 324938-238-R-J1-PDC, 855422-203-R-J1-PDC and 883617-216-R-J1-PDC urothelial bladder carcinomas, 743489-274-T-PDC renal cell carcinoma, 138582-R-J1 Merkel cell tumor, K60290-347-R-J1 and K57222-313-R-J1-PDC glioblastomas, 653999-131-R-J2-PDC, LG0703-F948-PDC, and 349418-098-R-PDC non-small cell lung carcinomas, 885512-296-R-J2-PDC, 171881-019-R-J1-PDC breast carcinomas and 186277-243-T-J2-PDC and 233499-124-R-J2-PDC colon carcinomas were obtained from the NCI Patient-Derived Models Repository (PDMR, https://pdmr.cancer.gov). The established cell lines NCI/ADR-RES (RRID:CVCL_14520 and OVCAR-5 (RRID:CVCL_1628) ovarian carcinomas, 786-O (RRID:CVCL_1051) and A498 (RRID:CVCL_A498) renal cell carcinoma, NCI-H211 (ATCC, cat. CRL-5824; RRID:CVCL_1529), NCI-H196 (ATCC, cat. CRL-5823, RRID:CVCL_1509), SW 1271 (ATCC, cat. CRL-2177, RRID:CVCL_1716) and NCI-H1876 (ATCC, cat. CRL-5902, RRID:CVCL_1503) small cell lung carcinomas, MDA-MB-231 (RRID:CVCL_0062) and MDA-MB-468 (RRID:CVCL_0419)breast carcinomas (10-12). Pooled donor human umbilical vein endothelial cells (HUVEC, Lonza, cat. CC-2519) and human mesenchymal stem cells (hMSC, Lonza, cat. PT-2501) were purchased from Lonza (Walkersville, MD).
Cell Culture. All cells were maintained in an incubator at 37 degrees C and 5% CO2 with 95% humidity. The PDC lines were cultured according to standard operating procedures established by the NCI PDMR (https://pdmr.cancer.gov). Briefly all PDCs were thawed and cultured in Matrigel-coated flasks prepared with a working solution of 1X Ham's F-12 nutrient mix, without supplementation (Invitrogen, Waltham, MA, cat. 11765054), 100 U/mL penicillin-streptomycin (Invitrogen, cat. 15140122), and 2.5% Matrigel (Corning Inc., Corning, NY, cat. 354248) for the first three passages. […]

[1] = second compound 0.1 µM, first compound 0.000949 µM
[2] = second compound 0.1 µM, first compound 0.003 µM
[3] = second compound 0.1 µM, first compound 0.00949 µM
[4] = second compound 0.1 µM, first compound 0.03 µM
[5] = second compound 0.1 µM, first compound 0.0949 µM
[6] = second compound 0.1 µM, first compound 0.3 µM
[7] = second compound 0.316 µM, first compound 0.000949 µM
[8] = second compound 0.316 µM, first compound 0.003 µM
[9] = second compound 0.316 µM, first compound 0.00949 µM
[10] = second compound 0.316 µM, first compound 0.03 µM
[11] = second compound 0.316 µM, first compound 0.0949 µM
[12] = second compound 0.316 µM, first compound 0.3 µM
[13] = second compound 1 µM, first compound 0.000949 µM
[14] = second compound 1 µM, first compound 0.003 µM
[15] = second compound 1 µM, first compound 0.00949 µM
[16] = second compound 1 µM, first compound 0.03 µM
[17] = second compound 1 µM, first compound 0.0949 µM
[18] = second compound 1 µM, first compound 0.3 µM
[19] = second compound 3.16 µM, first compound 0.000949 µM
[20] = second compound 3.16 µM, first compound 0.003 µM
[21] = second compound 3.16 µM, first compound 0.00949 µM
[22] = second compound 3.16 µM, first compound 0.03 µM
[23] = second compound 3.16 µM, first compound 0.0949 µM
[24] = second compound 3.16 µM, first compound 0.3 µM
[25] = second compound 10 µM, first compound 0.000949 µM
[26] = second compound 10 µM, first compound 0.003 µM
[27] = second compound 10 µM, first compound 0.00949 µM
[28] = second compound 10 µM, first compound 0.03 µM
[29] = second compound 10 µM, first compound 0.0949 µM
[30] = second compound 10 µM, first compound 0.3 µM
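Further: drug exposure lasted 7 days starting on day 3 after seeding.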
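Wherever viability, T/C is given: luminescence viability as percent of DMSO vehicle wells = 100%.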

Structure (SMILES): CCc1c2c(nc3ccc(O)cc13)-c1cc3c(c(=O)n1C2)COC(=O)[C@]3(O)CC + NC1CC1c1ccc(-c2cccc(O)c2)cc1
- IC50 (second compound 0.1 µM): < 0.949 nM
- IC50 (second compound 0.316 µM): < 0.949 nM
- IC50 (second compound 1 µM): < 0.949 nM
- IC50 (second compound 3.16 µM): < 0.949 nM
- IC50 (second compound 10 µM): < 0.949 nM
- viability, T/C [1]: 20.8%
- viability, T/C [2]: 14.2%
- viability, T/C [3]: 9.58%
- viability, T/C [4]: 6.75%
- viability, T/C [5]: 4.82%
- viability, T/C [6]: 3.56%
- viability, T/C [7]: 17.1%
- viability, T/C [8]: 15.1%
- viability, T/C [9]: 10.9%
- viability, T/C [10]: 6.65%
- viability, T/C [11]: 4.88%
- viability, T/C [12]: 2.78%
- viability, T/C [13]: 15.7%
- viability, T/C [14]: 13%
- viability, T/C [15]: 10.2%
- viability, T/C [16]: 6.49%
- viability, T/C [17]: 3.41%
- viability, T/C [18]: 2.05%
- viability, T/C [19]: 15.7%
- viability, T/C [20]: 13.7%
- viability, T/C [21]: 9.86%
- viability, T/C [22]: 6.91%
- viability, T/C [23]: 4.7%
- viability, T/C [24]: 2.44%
- viability, T/C [25]: 17.6%
- viability, T/C [26]: 12.6%
- viability, T/C [27]: 8.31%
- viability, T/C [28]: 5.99%
- viability, T/C [29]: 2.54%
- viability, T/C [30]: 1.14%

Structure (SMILES): Nc1ccn(C2OC(CO)C(O)C2(F)F)c(=O)n1 (stereo not given) + NC1CC1c1ccc(-c2cccc(O)c2)cc1
- IC50 (second compound 0.1 µM): 2.84 nM
- IC50 (second compound 0.316 µM): 3.19 nM
- IC50 (second compound 1 µM): 2.95 nM
- IC50 (second compound 3.16 µM): 2.25 nM
- IC50 (second compound 10 µM): 3.01 nM
- viability, T/C [1]: 84.7%
- viability, T/C [2]: 46.3%
- viability, T/C [3]: 33.9%
- viability, T/C [4]: 25.2%
- viability, T/C [5]: 22.6%
- viability, T/C [6]: 18.3%
- viability, T/C [7]: 86.9%
- viability, T/C [8]: 49%
- viability, T/C [9]: 34.2%
- viability, T/C [10]: 26.7%
- viability, T/C [11]: 19.9%
- viability, T/C [12]: 17.1%
- viability, T/C [13]: 76%
- viability, T/C [14]: 48.5%
- viability, T/C [15]: 36%
- viability, T/C [16]: 25%
- viability, T/C [17]: 20.4%
- viability, T/C [18]: 20.6%
- viability, T/C [19]: 76.8%
- viability, T/C [20]: 36.9%
- viability, T/C [21]: 33.3%
- viability, T/C [22]: 25.1%
- viability, T/C [23]: 17.8%
- viability, T/C [24]: 18.8%
- viability, T/C [25]: 77.4%
- viability, T/C [26]: 46.4%
- viability, T/C [27]: 38%
- viability, T/C [28]: 28%
- viability, T/C [29]: 23.3%
- viability, T/C [30]: 18.5%

Structure (SMILES): O=C(c1cc(Cc2n[nH]c(=O)c3ccccc23)ccc1F)N1CCN(C(=O)C2CC2)CC1 + NC1CC1c1ccc(-c2cccc(O)c2)cc1
- IC50 (second compound 0.1 µM): > 10000 nM
- IC50 (second compound 0.316 µM): > 10000 nM
- IC50 (second compound 1 µM): > 10000 nM
- IC50 (second compound 3.16 µM): > 10000 nM
- IC50 (second compound 10 µM): > 10000 nM
- viability, T/C (second compound 0.1 µM, first compound 0.0316 µM): 98.9%
- viability, T/C (second compound 0.1 µM, first compound 0.1 µM): 99.2%
- viability, T/C (second compound 0.1 µM, first compound 0.316 µM): 99.8%
- viability, T/C (second compound 0.1 µM, first compound 1 µM): 98%
- viability, T/C (second compound 0.1 µM, first compound 3.16 µM): 102%
- viability, T/C (second compound 0.1 µM, first compound 10 µM): 84%
- viability, T/C (second compound 0.316 µM, first compound 0.0316 µM): 91.1%
- viability, T/C (second compound 0.316 µM, first compound 0.1 µM): 87.4%
- viability, T/C (second compound 0.316 µM, first compound 0.316 µM): 97.2%
- viability, T/C (second compound 0.316 µM, first compound 1 µM): 98.4%
- viability, T/C (second compound 0.316 µM, first compound 3.16 µM): 101%
- viability, T/C (second compound 0.316 µM, first compound 10 µM): 81.4%
- viability, T/C (second compound 1 µM, first compound 0.0316 µM): 90.1%
- viability, T/C (second compound 1 µM, first compound 0.1 µM): 87.7%
- viability, T/C (second compound 1 µM, first compound 0.316 µM): 89.3%
- viability, T/C (second compound 1 µM, first compound 1 µM): 95.5%
- viability, T/C (second compound 1 µM, first compound 3.16 µM): 90.3%
- viability, T/C (second compound 1 µM, first compound 10 µM): 80.8%
- viability, T/C (second compound 3.16 µM, first compound 0.0316 µM): 94.4%
- viability, T/C (second compound 3.16 µM, first compound 0.1 µM): 89.7%
- viability, T/C (second compound 3.16 µM, first compound 0.316 µM): 92.1%
- viability, T/C (second compound 3.16 µM, first compound 1 µM): 91.3%
- viability, T/C (second compound 3.16 µM, first compound 3.16 µM): 93.6%
- viability, T/C (second compound 3.16 µM, first compound 10 µM): 70.1%
- viability, T/C (second compound 10 µM, first compound 0.0316 µM): 92.2%
- viability, T/C (second compound 10 µM, first compound 0.1 µM): 89.4%
- viability, T/C (second compound 10 µM, first compound 0.316 µM): 85.1%
- viability, T/C (second compound 10 µM, first compound 1 µM): 89.6%
- viability, T/C (second compound 10 µM, first compound 3.16 µM): 83.3%
- viability, T/C (second compound 10 µM, first compound 10 µM): 55.5%

Source: PubChem BioAssay AID1918943 (Molecular Pharmacology Branch, DTP, NCI, 2023)
